# Source: patent publication US20260224732A1, “BIOPOLYMER PROTECTED OLIGONUCLEOTIDES FOR DRUG DELIVERY” (THE ROYAL INSTITUTION FOR THE ADVANCEMENT OF LEARNING / …, priority 2023, published 2026)
# Like-named read-outs stand apart in the source and are kept apart here.
# B1: dA30C4v2: hydrogel strands: 30 adenine followed by 20 complementary base pairs as overhang; strand1 and strand2, SEQ ID NO 33, 34 (nucleic acid)
# chain 1: AAAAAAAAAAAAAAAAAAAAAAAAAAAAAACCCCATTCTACTTGAGAGAGCGAC
# chain 2: AAAAAAAAAAAAAAAAAAAAAAAAAAAAAACCCCGTCGCTCTCTCAAGTAGAAT
# modifications: DNA, backbone not given here; hydrogel-forming strands with complementary overhangs
# B2: dA30-dsDNA13: half strand1 and half strand2, SEQ ID NO 31 and 32, double-stranded DNA crosslink (nucleic acid)
# chain 1: AAAAAAAAAAAAAAAAAAAAAAAAAAAAAACTAGAAGTGTCCAGTTA
# chain 2: AAAAAAAAAAAAAAAAAAAAAAAAAAAAAATTACTAACTGGACACTT
# modifications: DNA, backbone not given here; crosslinked double-stranded DNA
# Columns and labels:
# Epithelial cells = assay: Cellular viability with CA and CA-R mixes; assay type: cell-based; details: after 5 days, pH 6; CA 20 mM alone or CA 20 mM plus the named CA-R (CAC2NH2 30 mM, CAC6NH2 12 mM)
# Text: Magnification of 10×, scale bar=100 μm, dapi in blue and factin in red.
# Cellular viability. To be applicable in biological context, the toxicity of the CA and the combined CA-R mixes were verified. Epithelial cells were cultivated in media supplemented with various CA-R mixes and acidified at pH 6. Both the cellular viability and morphology was studied over a 5 day period.
# [1] = assay type: in vitro ADME, bovine; details: pH 6
# Method: (§1) The sample then was stored at −20° C.
# (§2) Results. The PAGE analyses were performed for both CA concentrations, and imaged side-by-side (FIG. 2). The strongest resulting band intensities were normalised to the t=0 data-point, plotted as a function of time (See Supplemental), and then fitted to the first-order kinetics equations (Equations 1, 2, and FIG. 3). The rate constants were calculated from these graphs (using Equation 4), and tabulated according to strand and CA concentration (Table 2).
# (§3) Equation 4. The Equation 2, written as relationship between the band intensities (I at some t, and at t=0), and the rate constant, k.
# [2] = Serum stability assay in L15 media with FBS, denaturing PAGE band intensity; assay type: in vitro ADME, bovine; details: pH 6
# Method: as §1, §2
# Equation 1. First-order rate law for the variation of the concentration of a substance (in this case, nucleic acid, “NA”) with time, where [NA]t is the concentration of NA at a given time t, and [NA]0 is the initial concentration.
# as §3
# [3] = Rheological measurements of dA/CA hydrogels; assay type: physicochemical; details: for storage modulus (G′): same wt % (dA15 1400 μM, dA30 700 μM, dA50 420 μM), Mag buffer, 25° C.; for G′ window: dA50 420 μM, dA30C8 2 mM, CA 60 mM, CAC2NH2 90 mM
# Method: Hydrogel Assembly and Rheology: Unless otherwise stated, the preparation of gels follows this procedure. The appropriate amounts of strands are evaporated from their stocks on a speedvaccuum in a 300 μL Eppendorf. For the dA30-dsDNAn hydrogels, the concentration is half strand1 and half strand2. Once dry, 50 μL or 100 μL of a buffer containing the desired concentration of CA and/or CAC2NH2 is added to the Eppendorf. […] Both buffers give similar gels rheologically (FIG. 40). For concentrations of CA exceeding 20 mM or CAC2NH2 30 mM, the excess CA-R is dried with the strands from a water/CA 20 mM solution adjusted to pH 6. The dried DNA is mixed and sonicated to help it dissolve, forming instantly a cloudy filamentous gel. To homogenize the gels, the Eppendorf is heated to 85° C. for 5 minutes a Bio-Rad T100TM thermocycler, then cooled down to 20° C. and kept at that temperature overnight, unless otherwise noted. They are measured the next day. It is important to properly homogenize the gels, mixing them at high temp if needed, and to quickly cool them, or they may form more localized aggregates with varying rheology. Due to the high melting temperature of dA30C8 2 mM, CA 60 mM, CAC2NH2 90 mM, the gel was prepared by heating at 100° C. for 20 min (sealed to prevent water escaping), before being brought to 20° C. Clear monophasic gels are formed from this process.
# Rheological measurements: Rheological properties were measured using stress-controlled rheometer (MCR 302, Anton Paar) using a 15 mm diameter cone plate at 0.2 mm (50 μL gels) or 0.5 mm (100 μL gels) gap distance. Samples were taken directly from the Eppendorf in which they were formed by prying it open with a razor blade and placed under the cone plate. The temperature was maintained at 25° C. for all measurements using a Peltier temperature control unit unless otherwise noted. Due to the small thickness of the samples, no temperature gradients are expected. To avoid drying, a solvent trap was used in all the measurements. Amplitude sweeps were first conducted to assess the linear viscoelastic range of the samples by slowly increasing the strain from 0.01% to 100%. […] Oscillatory frequency sweep tests were measured between 0.1 Hz and 100 Hz at 0.1% strain. Strain-cycle experiment was done by cycling the gel between 0.1% and 100% strains at 1 Hz. To understand the shear-thinning behavior of the samples, the viscosity was measured at increasing strain rate ranging from (0.1-100 Hz).
# • A) Strand complement. Two 50 μL dA30C4 700 μM hydrogel in Mag buffer with CA 20 mM samples were prepared, as well as a 10 μL sample of dG4T30 3 mM (1.5 eq.) in the same buffer and CA concentration. A sample of dA30C4 hydrogel was measured independently. The dG4T30 sample was added to the second dA30C4 sample and vortexed in its Eppendorf for 2 minutes before being measured. • B) Melamine. A 50 μL hydrogel composed of dA30-dsDNA13 700 μM and CA 20 mM in Mag buffer was measured in the rheometer. The plate of the rheometer was lifted and 50 μL of solution of 20 mM melamine in Mag buffer at pH6 was added to it. Instant white precipitate formed and was encouraged by gently mixing with a spatula for 30s before the resulting liquid with solid precipitate was measured rheologically. • C) pH. A volume of 180 μL of dA30C4v2 700 μM CA 20 mM hydrogel in Mag buffer was prepared. The initial pH was measured at 5.71 with a surface pH meter (Mettler Toledo). An approximate volume of 50 μL was separated and measured rheologically. To the remaining 130 μL, 2.70 μL of NaOH 5.04M was added and stirred through vortexing. The resulting pH of the liquid was measured at 7.91. 50 μL of it were measured rheologically. To the remaining 80 μL, 1.5 μL of HCl 5.04M was added by aliquot and mixed through vortexing, forming a gel with a pH of 5.66 after 2 minutes. To note that in general, it is important to mix vigorously with the addition of the acid, or localized gels will form rather than a homogeneous one. […]
Molecule,k 0 mM [CA] [1],k 20 mM [CA] [1],k 0 mM [CA] [2],k 20 mM [CA] [2],further results
NCCn1c(=O)[nH]c(=O)[nH]c1=O [CAC2NH2],–,–,–,–,viability (Epithelial cells): 82±5%
NCCCCCCn1c(=O)[nH]c(=O)[nH]c1=O [CAC6NH2],–,–,–,–,viability (Epithelial cells): 43±2%
"Control random: DNA GATGAGGTACCCAGAAGCCGAACTGGGCCAGACAACCCGGCGCTAAC, SEQ ID NO 11, no polyA (DNA, backbone not given here) [reference compound]",(3.86 ± 0.2) × 10^−2 h^−1,(3.48 ± 0.8) × 10^−2 h^−1,–,–,–
"R7rA15: RNA strand AAAAAAAAAAAAAAAGTCATCG, SEQ ID NO 3 in Table 1; Table 5 swaps the name with rA15R7 (AAAAAAAAAAAAAAAGUCAUCG; chemistry not fully specified) [Strand R7rA15]",(2.80 ± 0.7) × 10^−2 h^−1,(7.47 ± 0.4) × 10^−3 h^−1,(3.73) × 10^−2 h^−1,(2.59) × 10^−3 h^−1,–
"dA15: DNA strand of 15 adenines, SEQ ID NO 5 (DNA AAAAAAAAAAAAAAA; DNA, backbone not given here)",–,–,–,–,"storage modulus (G′) ([3]; 1 Hz, CA 20 mM): 1.3±0.8×10^1 Pa; storage modulus ([3]; pure dA15 hydrogel with CA): ~10^1 Pa; storage modulus ([3]; pure dA15 hydrogel with CAC2NH2 instead of CA, 0.7 wt % (including CAC2NH2)): ~10^3 Pa"
"dA30C4-v2′: DNA strand, 30 adenines then CCCCGTCGCTCTCTCAAGTAGAAT, SEQ ID NO 10 (DNA AAAAAAAAAAAAAAAAAAAAAAAAAAAAAACCCCGTCGCTCTCTCAAGTAGAAT; DNA, backbone not given here)",(1.33 ± 0.1) × 10^−2 h^−1,(3.46 ± 0.5) × 10^−3 h^−1,–,–,–
"dA30C4: DNA strand, 30 adenines then CCCC, SEQ ID NO 9 (DNA AAAAAAAAAAAAAAAAAAAAAAAAAAAAAACCCC; DNA, backbone not given here)",–,–,(5.83) × 10^−3 h^−1,(−2.08) × 10^−3 * h^−1,"G′ and G″ after addition of the complementary strand dG4T30 ([3]; dA30C4 700 μM, CA 20 mM, dG4T30 1.5 eq.): large loss of G′ and G″"
"dA30C8: DNA strand, 30 adenines then CCCCCCCC, SEQ ID NO 8 (DNA AAAAAAAAAAAAAAAAAAAAAAAAAAAAAACCCCCCCC; DNA, backbone not given here)",(2.29 ± 0.5) × 10^−2 h^−1,(4.87 ± 0.7) × 10^−3 h^−1,–,–,"moduli at 37° C. ([3]; 1.7 wt % gel, room temperature to 37° C.): virtually unchanged; G′ ([3]; 1.7 wt %, mixture of CA and CAC2NH2): ~10^4 Pa; G′ ([3]; 4.7 wt % (CA-R included), 1 Hz): 8±1×10^4 Pa; G′ ([3]; 4.7 wt % (CA-R included), 10 Hz): 1±0.1×10^5 Pa; storage modulus at 85° C. ([3]; 4.7 wt % gel, 85° C.): above 10^4 Pa; G′ window ([3]; CA 20 mM): ~10^5 Pa; gel state at 100° C. ([3]; qualitatively observed): staying a gel"
"dA50: DNA strand of 50 adenines, SEQ ID NO 28 (DNA AAAAAAAAAAAAAAAAAAAAAAAAAAAAAAAAAAAAAAAAAAAAAAAAAA; DNA, backbone not given here)",–,–,–,–,"storage modulus (G′) ([3]; 1 Hz, CA 20 mM): 4±2×10^1 Pa; G′ window ([3]; CA 20 mM): ~10^1 Pa"
"rA15: RNA strand AAAAAAAAAAAAAAA, SEQ ID NO 1 (RNA, backbone not given here)",(2.43 ± 0.3) × 10^−2 h^−1,(2.42 ± 0.2) × 10^−3 h^−1,(6.70) × 10^−2 h^−1,(1.07) × 10^−2 h^−1,–
"rA15R7: RNA strand GCTACTGAAAAAAAAAAAAAAA, SEQ ID NO 2 in Table 1; Table 5 swaps the name with R7rA15 (GCUACUGAAAAAAAAAAAAAAA; chemistry not fully specified)",(1.25 ± 0.2) × 10^−1 h^−1,(2.25 ± 0.2) × 10^−3 h^−1,(4.67) × 10^−2 h^−1,(4.16) × 10^−3 h^−1,–
B1,–,–,–,–,"storage modulus G′ (1 Hz) ([3]; 700 μM strands (1.4 wt % for dA30C4v2), CA 20 mM): 4±0.8×10^3 Pa; G′ ([3]; 4 wt % (CA included)): 3×10^4 Pa"
B2,–,–,–,–,"yield point of the gel (G″ overtakes G′) ([3]; 700 μM): Around 1 % shear strain; G′ and G″ after adding stoichiometric amount of melamine ([3]; 700 μM, CA 20 mM, melamine 20 mM): greatly decreases G′ and G″; self-healing, return to initial modulus ([3]; cycling low shear (0.1%) and high shear (100%)): under 1 min"
